Measured values taken from paper PMC6331730 (The EMBO Journal, 2018).

Test system: Purified tubulin with GST-tagged CPAP PN2-3 (pull-down)
Test: GST-PN2-3 pull-down, semi-quantitative Western blot
Format: binding
Settings: protein-protein interaction inhibition

IC50: ~441 nM
Structure (SMILES): COc1ncc2cc3ccccc3nc2c1C#N [CCB02, 3‐Methoxybenzo[b][1,6]naphthyridine‐4‐carbonitrile]
